Legend:
Set-up in all cases: scale not given here
[1] = system: ABUTH Velvetleaf; test: Postemergence herbicidal evaluation, ABUTH; assay type: in vivo, Abutilon theophrasti, Medic.; details: postemergence spray, rated about two-three weeks after treatment
Outline: (§1)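 Seedlings grown about two weeks were sprayed with compound in 80/20 acetone/water containing 1.0% methylated seed oil, at the equivalent of about 0.006 to 0.400 kg/ha, through a nozzle at 40 psi. Plants were kept in the greenhouse and rated visually about two to three weeks after treatment.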

[2] = system: AMBEL Ragweed, Common; test: Postemergence herbicidal evaluation, AMBEL; assay type: in vivo, Ambrosia artemisifolia, L.; details: postemergence spray, rated about two-three weeks after treatment
Outline: as §1

[3] = system: CASOB Sicklepod; test: Postemergence herbicidal evaluation, CASOB; assay type: in vivo, Cassia obtusifolia, L.; details: postemergence spray, rated about two-three weeks after treatment
Outline: as §1

[4] = system: CHEAL Lambsquarters, Common; test: Postemergence herbicidal evaluation, CHEAL; assay type: in vivo, Chenopodium album, L.; details: postemergence spray, rated about two-three weeks after treatment
Outline: as §1

[5] = system: ECHOG Barnyardgrass; test: Postemergence herbicidal evaluation, ECHOG; assay type: in vivo, Echinochloa crus-galli, (L.) Beau; details: postemergence spray, rated about two-three weeks after treatment
Outline: as §1

[6] = system: GALAP Galium; test: Postemergence herbicidal evaluation, GALAP; assay type: in vivo, Galium aparine; details: postemergence spray, rated about two-three weeks after treatment
Outline: as §1

[7] = system: IPOHE Morningglory, Ivyleaf; test: Postemergence herbicidal evaluation, IPOHE; assay type: in vivo, Ipomoea hederacea, (L.) Jacq.; details: postemergence spray, rated about two-three weeks after treatment
Outline: as §1

[8] = system: SETVI Foxtail, Green; test: Postemergence herbicidal evaluation, SETVI; assay type: in vivo, Setaria viridis, (L.) Beau; details: postemergence spray, rated about two-three weeks after treatment
Outline: as §1

[9] = system: GLXMAW Soybean, Williams; test: Postemergence herbicidal evaluation, GLXMAW; assay type: in vivo, Glycine max, (L.) Merr. cv Williams; details: postemergence spray, rated about two-three weeks after treatment
Outline: as §1

[10] = system: TRZAWR Wheat, Winter, cv Riband; test: Postemergence herbicidal evaluation, TRZAWR; assay type: in vivo, Triticum aestivum; details: postemergence spray, rated about two-three weeks after treatment
Outline: as §1

[11] = system: ORYSAT Rice, Tebonnet; test: Postemergence herbicidal evaluation, ORYSAT; assay type: in vivo, Oryza sativa, (L.); details: postemergence spray, rated about two-three weeks after treatment
Outline: as §1

[12] = system: ZEAMX Corn, Field; test: Postemergence herbicidal evaluation, ZEAMX; assay type: in vivo, Zea mays, L. (Sammel-Bezeichnung); details: postemergence spray, rated about two-three weeks after treatment
Outline: as §1

[13] = system: ABUTH Velvetleaf; test: Preemergence herbicidal evaluation, ABUTH; assay type: in vivo, Abutilon theophrasti, Medic.; details: preemergence
Outline: (§2)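 Seeds mixed with potting soil were planted on about one inch of soil in cups, then sprayed with the test compound in aqueous acetone at roughly 0.013 to 0.800 kg per hectare. Plants were kept under standard greenhouse care and injury was rated four to five weeks after treatment.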

[14] = system: AMBEL Ragweed, Common; test: Preemergence herbicidal evaluation, AMBEL; assay type: in vivo, Ambrosia artemisifolia, L.; details: preemergence
Outline: as §2

[15] = system: CASOB Sicklepod; test: Preemergence herbicidal evaluation, CASOB; assay type: in vivo, Cassia obtusifolia, L.; details: preemergence
Outline: as §2

[16] = system: CHEAL Lambsquarters, Common; test: Preemergence herbicidal evaluation, CHEAL; assay type: in vivo, Chenopodium album, L.; details: preemergence
Outline: as §2

[17] = system: ECHOG Barnyardgrass; test: Preemergence herbicidal evaluation, ECHOG; assay type: in vivo, Echinochloa crus-galli, (L.) Beau; details: preemergence
Outline: as §2

[18] = system: GALAP Galium; test: Preemergence herbicidal evaluation, GALAP; assay type: in vivo, Galium aparine; details: preemergence
Outline: as §2

[19] = system: IPOHE Morningglory, Ivyleaf; test: Preemergence herbicidal evaluation, IPOHE; assay type: in vivo, Ipomoea hederacea, (L.) Jacq.; details: preemergence
Outline: as §2

[20] = system: SETVI Foxtail, Green; test: Preemergence herbicidal evaluation, SETVI; assay type: in vivo, Setaria viridis, (L.) Beau; details: preemergence
Outline: as §2

[21] = system: GLXMAW Soybean, Williams; test: Preemergence herbicidal evaluation, GLXMAW; assay type: in vivo, Glycine max, (L.) Merr. cv Williams; details: preemergence
Outline: as §2

[22] = system: TRZAWR Wheat, Winter, cv Riband; test: Preemergence herbicidal evaluation, TRZAWR; assay type: in vivo, Triticum aestivum; details: preemergence
Outline: as §2

[23] = system: ORYSAT Rice, Tebonnet; test: Preemergence herbicidal evaluation, ORYSAT; assay type: in vivo, Oryza sativa, (L.); details: preemergence
Outline: as §2

[24] = system: ZEAMX Corn, Field; test: Preemergence herbicidal evaluation, ZEAMX; assay type: in vivo, Zea mays, L. (Sammel-Bezeichnung); details: preemergence
Outline: as §2

Cc1ccc(-n2nnc3cc(F)c(-n4c(=O)cc(C(F)(F)F)n(C)c4=O)cc32)cc1C [Example 23]
Postemergence herbicidal rating ABUTH ([1]; 0.008 kg/ha): 9.0 | Postemergence herbicidal rating ABUTH ([1]; 0.016 kg/ha): 9.0 | Postemergence herbicidal rating ABUTH ([1]; 0.032 kg/ha): 9.0 | Postemergence herbicidal rating ABUTH ([1]; 0.062 kg/ha): 9.0 | Postemergence herbicidal rating AMBEL ([2]; 0.008 kg/ha): 0.0 | Postemergence herbicidal rating AMBEL ([2]; 0.016 kg/ha): 0.0 | Postemergence herbicidal rating AMBEL ([2]; 0.032 kg/ha): 4.0 | Postemergence herbicidal rating AMBEL ([2]; 0.062 kg/ha): 9.0 | Postemergence herbicidal rating CASOB ([3]; 0.008 kg/ha): 0.0 | Postemergence herbicidal rating CASOB ([3]; 0.016 kg/ha): 0.0 | Postemergence herbicidal rating CASOB ([3]; 0.032 kg/ha): 0.0 | Postemergence herbicidal rating CASOB ([3]; 0.062 kg/ha): 3.0 | Postemergence herbicidal rating CHEAL ([4]; 0.008 kg/ha): 3.0 | Postemergence herbicidal rating CHEAL ([4]; 0.032 kg/ha): 4.0 | Postemergence herbicidal rating CHEAL ([4]; 0.062 kg/ha): 9.0 | Postemergence herbicidal rating ECHCG ([5]; 0.008 kg/ha): 0.0 | Postemergence herbicidal rating ECHCG ([5]; 0.016 kg/ha): 0.0 | Postemergence herbicidal rating ECHCG ([5]; 0.032 kg/ha): 0.0 | Postemergence herbicidal rating ECHCG ([5]; 0.062 kg/ha): 0.0 | Postemergence herbicidal rating GALAP ([6]; 0.008 kg/ha): 0.0 | Postemergence herbicidal rating GALAP ([6]; 0.016 kg/ha): 2.0 | Postemergence herbicidal rating GALAP ([6]; 0.032 kg/ha): 2.0 | Postemergence herbicidal rating GALAP ([6]; 0.062 kg/ha): 2.0 | Postemergence herbicidal rating IPOHE ([7]; 0.008 kg/ha): 2.0 | Postemergence herbicidal rating IPOHE ([7]; 0.016 kg/ha): 9.0 | Postemergence herbicidal rating IPOHE ([7]; 0.032 kg/ha): 9.0 | Postemergence herbicidal rating IPOHE ([7]; 0.062 kg/ha): 9.0 | Postemergence herbicidal rating SETVI ([8]; 0.008 kg/ha): 7.0 | Postemergence herbicidal rating SETVI ([8]; 0.016 kg/ha): 9.0 | Postemergence herbicidal rating SETVI ([8]; 0.032 kg/ha): 9.0 | Postemergence herbicidal rating SETVI ([8]; 0.062 kg/ha): 9.0 | Postemergence herbicidal rating GLXMAW ([9]; 0.008 kg/ha): 3.5 | Postemergence herbicidal rating GLXMAW ([9]; 0.016 kg/ha): 4.5 | Postemergence herbicidal rating GLXMAW ([9]; 0.032 kg/ha): 4.5 | Postemergence herbicidal rating GLXMAW ([9]; 0.062 kg/ha): 4.5 | Postemergence herbicidal rating TRZAWR ([10]; 0.008 kg/ha): 4.0 | Postemergence herbicidal rating TRZAWR ([10]; 0.016 kg/ha): 4.5 | Postemergence herbicidal rating TRZAWR ([10]; 0.032 kg/ha): 5.5 | Postemergence herbicidal rating TRZAWR ([10]; 0.062 kg/ha): 6.5 | Postemergence herbicidal rating ORYSAT ([11]; 0.008 kg/ha): 2.5 | Postemergence herbicidal rating ORYSAT ([11]; 0.016 kg/ha): 3.0 | Postemergence herbicidal rating ORYSAT ([11]; 0.032 kg/ha): 3.5 | Postemergence herbicidal rating ORYSAT ([11]; 0.062 kg/ha): 4.0 | Postemergence herbicidal rating ZEAMX ([12]; 0.008 kg/ha): 5.5 | Postemergence herbicidal rating ZEAMX ([12]; 0.016 kg/ha): 7.0 | Postemergence herbicidal rating ZEAMX ([12]; 0.032 kg/ha): 8.0 | Postemergence herbicidal rating ZEAMX ([12]; 0.062 kg/ha): 8.5 | ABUTH herbicidal rating ([13]; rate 0.016 kg/ha): 0.0 | ABUTH herbicidal rating ([13]; rate 0.032 kg/ha): 3.0 | ABUTH herbicidal rating ([13]; rate 0.062 kg/ha): 9.0 | ABUTH herbicidal rating ([13]; rate 0.125 kg/ha): 9.0 | AMBEL herbicidal rating ([14]; rate 0.016 kg/ha): 0.0 | AMBEL herbicidal rating ([14]; rate 0.032 kg/ha): 0.0 | AMBEL herbicidal rating ([14]; rate 0.062 kg/ha): 0.0 | AMBEL herbicidal rating ([14]; rate 0.125 kg/ha): 1.0 | CASOB herbicidal rating ([15]; rate 0.016 kg/ha): 0.0 | CASOB herbicidal rating ([15]; rate 0.032 kg/ha): 0.0 | CASOB herbicidal rating ([15]; rate 0.062 kg/ha): 0.0 | CASOB herbicidal rating ([15]; rate 0.125 kg/ha): 0.0 | CHEAL herbicidal rating ([16]; rate 0.016 kg/ha): 0.0 | CHEAL herbicidal rating ([16]; rate 0.032 kg/ha): 7.0 | CHEAL herbicidal rating ([16]; rate 0.062 kg/ha): 9.0 | CHEAL herbicidal rating ([16]; rate 0.125 kg/ha): 9.0 | ECHCG herbicidal rating ([17]; rate 0.016 kg/ha): 0.0 | ECHCG herbicidal rating ([17]; rate 0.032 kg/ha): 2.0 | ECHCG herbicidal rating ([17]; rate 0.062 kg/ha): 5.0 | ECHCG herbicidal rating ([17]; rate 0.125 kg/ha): 8.0 | GALAP herbicidal rating ([18]; rate 0.016 kg/ha): 0.0 | GALAP herbicidal rating ([18]; rate 0.032 kg/ha): 0.0 | GALAP herbicidal rating ([18]; rate 0.062 kg/ha): 0.0 | GALAP herbicidal rating ([18]; rate 0.125 kg/ha): 0.0 | IPOHE herbicidal rating ([19]; rate 0.016 kg/ha): 0.0 | IPOHE herbicidal rating ([19]; rate 0.032 kg/ha): 0.0 | IPOHE herbicidal rating ([19]; rate 0.062 kg/ha): 0.0 | IPOHE herbicidal rating ([19]; rate 0.125 kg/ha): 1.0 | SETVI herbicidal rating ([20]; rate 0.016 kg/ha): 3.0 | SETVI herbicidal rating ([20]; rate 0.032 kg/ha): 8.0 | SETVI herbicidal rating ([20]; rate 0.062 kg/ha): 9.0 | SETVI herbicidal rating ([20]; rate 0.125 kg/ha): 9.0 | GLXMAW herbicidal rating ([21]; rate 0.016 kg/ha): 0.0 | GLXMAW herbicidal rating ([21]; rate 0.032 kg/ha): 0.0 | GLXMAW herbicidal rating ([21]; rate 0.062 kg/ha): 0.0 | GLXMAW herbicidal rating ([21]; rate 0.125 kg/ha): 0.0 | TRZAWR herbicidal rating ([22]; rate 0.016 kg/ha): 0.0 | TRZAWR herbicidal rating ([22]; rate 0.032 kg/ha): 0.0 | TRZAWR herbicidal rating ([22]; rate 0.062 kg/ha): 1.0 | TRZAWR herbicidal rating ([22]; rate 0.125 kg/ha): 3.0 | ORYSAT herbicidal rating ([23]; rate 0.016 kg/ha): 0.0 | ORYSAT herbicidal rating ([23]; rate 0.032 kg/ha): 0.0 | ORYSAT herbicidal rating ([23]; rate 0.062 kg/ha): 0.0 | ORYSAT herbicidal rating ([23]; rate 0.125 kg/ha): 0.0 | ZEAMX herbicidal rating ([24]; rate 0.016 kg/ha): 0.0 | ZEAMX herbicidal rating ([24]; rate 0.032 kg/ha): 0.0 | ZEAMX herbicidal rating ([24]; rate 0.062 kg/ha): 0.0 | ZEAMX herbicidal rating ([24]; rate 0.125 kg/ha): 4.0
